Data published in patent US20080234263A1, “Quinazoline Derivatives” (priority 2003, published 2008).

Tests used:
EGFR tyrosine kinase = target: T1, EGFR tyrosine kinase (Homo sapiens, UniProt P00533); experiment: Protein tyrosine kinase phosphorylation assay, Test (a); format: biochemical; settings: recombinant intracellular fragment of EGFR, ATP at Km concentration; read-out: IC50 (nM) Test (a) (Inhibition of EGFR tyrosine kinase protein phosphorylation)
T1 construct: Recombinant intracellular fragments of EGFR, erbB2 and erbB4; made in house; host or cells: baculovirus/Sf21 insect cells (cleared lysate used)
T1 sequence (P00533 669-1210 limits assumed): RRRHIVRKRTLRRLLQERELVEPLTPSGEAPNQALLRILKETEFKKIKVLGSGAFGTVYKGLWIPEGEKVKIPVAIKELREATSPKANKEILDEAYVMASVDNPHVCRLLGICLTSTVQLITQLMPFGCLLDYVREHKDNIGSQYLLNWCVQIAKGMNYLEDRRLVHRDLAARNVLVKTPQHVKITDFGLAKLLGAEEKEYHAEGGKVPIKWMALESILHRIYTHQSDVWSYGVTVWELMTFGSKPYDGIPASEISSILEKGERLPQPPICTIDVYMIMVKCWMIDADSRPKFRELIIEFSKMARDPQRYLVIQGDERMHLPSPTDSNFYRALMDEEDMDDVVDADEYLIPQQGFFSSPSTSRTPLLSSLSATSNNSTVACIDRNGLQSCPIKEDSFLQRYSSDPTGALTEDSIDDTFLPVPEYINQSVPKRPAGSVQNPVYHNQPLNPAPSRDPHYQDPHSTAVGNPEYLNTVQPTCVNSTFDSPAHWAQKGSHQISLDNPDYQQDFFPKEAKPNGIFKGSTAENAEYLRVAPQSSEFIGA
Procedure: Recombinant intracellular fragments of EGFR, erbB2 and erbB4 (accession numbers X00588, X03363 and L07868 respectively) were cloned and expressed in the baculovirus/Sf21 system. Lysates were prepared from these cells by treatment with ice-cold lysis buffer (20 mM N-2-hydroxyethylpiperizine-N′-2-ethanesulfonic acid (HEPES) pH7.5, 150 mM NaCl, 10% glycerol, 1% Triton X-100, 1.5 mM MgCl2, 1 mM ethylene glycol-bis(β-aminoethyl ether) N′,N′,N′,N′-tetraacetic acid (EGTA), plus protease inhibitors and then cleared by centrifugation.
Specifically, Maxisorb™ 96-well immunoplates were coated with synthetic peptide (0.2 μg of peptide in a 100 μl phosphate buffered saline (PBS) solution and incubated at 4° C. overnight).
The immobilised phospho-peptide product of the reaction was detected by immunological methods. Firstly, plates were incubated for 90 minutes at room temperature with anti-phosphotyrosine primary antibodies that were raised in the mouse (4G10 from Upstate Biotechnology). Following extensive washing, plates were treated with Horseradish Peroxidase (HRP) conjugated sheep anti-mouse secondary antibody (NXA931 from Amersham) for 60 minutes at room temperature.
Kinase inhibition for a given compound was expressed as an IC50 value. […] The range of phosphorylation was calculated from the positive (vehicle plus ATP) and negative (vehicle minus ATP) control values.

[1] = system: KB cells (human naso-pharangeal carcinoma cells); experiment: EGFR driven KB cell proliferation assay, Test (b); format: cell-based; settings: 96 h, EGF 1 ng/ml, incubation for 4 days, MTT
Procedure: This assay measures the ability of a test compound to inhibit the proliferation of KB cells (human naso-pharangeal carcinoma obtained from the American Type Culture Collection (ATCC).
Following adhesion to the plate, the cells are treated with or without EGF (final concentration of 1 ng/ml) and with or without compound at a range of concentrations in dimethylsulfoxide (DMSO) (0.1% final) before incubation for 4 days. Following the incubation period, cell numbers were determined by addition of 50 μl of 3-(4,5-Dimethylthiazol-2-yl)-2,5-diphenyltetrazolium bromide ([…]) (stock 5 mg/ml) for 2 hours. MTT solution was then tipped off, the plate gently tapped dry and the cells dissolved upon the addition of 100 μl of DMSO.
Absorbance of the solubilised cells was read at 540 nm using a Molecular Devices ThermoMax microplate reader. Inhibition of proliferation was expressed as an IC50 value. […] The range of proliferation was calculated from the positive (vehicle plus EGF) and negative (vehicle minus EGF) control values.

IC50 (EGFR tyrosine kinase)	IC50 [1]	SMILES
20 nM	50 nM	COc1cc2ncnc(Nc3cccc(Cl)c3F)c2cc1CN1CSC[C@H]1C(N)=O [Example 24, (4R)-3-({4-[(3-Chloro-2-fluorophenyl)amino]-7-methoxyquinazolin-6-yl}methyl)-1,3-thiazolidine-4-carboxamide]
64 nM	143 nM	COc1cc2ncnc(Nc3ccc(F)c(Cl)c3)c2cc1CN1CCC[C@@H]1C(=O)NCC#N [Example 20, 1-({4-[(3-Chloro-4-fluorophenyl)amino]-7-methoxyquinazolin-6-yl}methyl)-N-(cyanomethyl)-D-prolinamide]
67 nM	160 nM	COCCN1CCN(Cc2cc3c(Nc4cccc(Cl)c4F)ncnc3cc2OC)C(C(N)=O)C1 (stereo not drawn) [Example 37, 1-({4-[(3-Chloro-2-fluorophenyl)amino]-7-methoxyquinazolin-6-yl}methyl)-4-(2-methoxyethyl)piperazine-2-carboxamide]
